Experimental data as given in US7410974B2, “Halogenated Quinazolinyl nitrofurans as antibacterial agents” (Ulysses Pharmaceutical Products, Inc., priority 2003, dated 2008).
In brackets after ≈: the same amount, converted by molar mass. Like-named read-outs stand apart in the source and are kept apart here.

Legend:
S. aureus ATCC 29213 = test: MIC broth microdilution (NCCLS); format: cell-based, Staphylococcus aureus; details: Staphylococcus aureus, ATCC29213; S. aureus ATCC 29213; read-out: MIC
Method: (§1) Minimal Inhibitory Concentration (MIC) Determination. Bacteria (primary strain panel, TABLE 1). Susceptibility tests were performed following the recommendations from the National Committee for Clinical Standards (NCCLS). The MICs were determined by a broth microdilution technique using a final volume of 100 μl of cation-adjusted Mueller Hinton Broth (MHBCA) and a bacterial inoculum of 10^5-10^6 Colony Forming Units (CFU)/ml. The inocula were verified and precisely determined by applying 10-μl drops of 10-fold dilutions onto Triptic Soy Agar plates. The CFU were counted after an incubation of 24 h at 35° C. Any experiment showing an inoculum that was more or less than 10^5-10^6 CFU/ml was rejected. Control antibiotics and test compounds were prepared at a concentration equivalent to 2-fold the highest desired final concentration. Compounds were then diluted directly in the 96-well microtiter plates by serial 2-fold dilutions using a multichannel pipette. Microtiter plates were incubated during 24 h at 35° C. and growth was recorded by using a microtiterplate reader at 650 nm as well as by visual observation. The MIC was defined as the lowest concentration of compound yielding no visible growth. […] Fastidious bacteria. The medium used for Listeria monocytogenes, Neisseria meningitidis, and Campylobacter jejuni was MHBCA containing 2% laked horse blood. The medium used for Haemophilus influenzae and Branhamella (Moraxella) catarrhalis was HTM as recommended by the NCCLS. Cultures of these fastidious bacteria were incubated at 35° C. in a 5% CO2 atmosphere. […] The medium used for Bacteroides fragilis was Wilkins Chalgren broth and growth was allowed under an anaerobic atmosphere at 35° C. for 48 hours.

S. aureus MRSA COL = test: MIC broth microdilution (NCCLS); format: cell-based, Staphylococcus aureus; details: Staphylococcus aureus, MRSA, S. aureus MRSA COL; read-out: MIC
Method: as §1, with “hours. […]” for “hours.”

[1] = test system: S. epidermidis ATCC 12228; test: MIC broth microdilution (NCCLS); format: cell-based, Staphylococcus epidermidis; details: Staphylococcus epidermidis, ATCC12228; S. epidermidis ATCC 12228; read-out: MIC
Method: as §1

[2] = test system: S. saprophyticus ATCC 15305; test: MIC broth microdilution (NCCLS); format: cell-based, Staphylococcus saprophyticus; details: Staphylococcus saprophyticus, ATCC15305; S. saprophyticus ATCC 15305; read-out: MIC
Method: as §1

E. faecalis ATCC 29212 = test: MIC broth microdilution (NCCLS); format: cell-based, Enterococcus faecalis; details: Enterococcus faecalis, ATCC29212; E. faecalis ATCC 29212; read-out: MIC
Method: as §1

E. faecium ATCC 35667 = test: MIC broth microdilution (NCCLS); format: cell-based, Enterococcus faecium
Method: as §1

E. coli ATCC 25922 = test: MIC broth microdilution (NCCLS); format: cell-based, Escherichia coli; details: Escherichia coli, ATCC25922, E. coli ATCC 25922 (Reference); read-out: MIC
Method: as §1

H. influenzae ATCC 49247 [3] = test: MIC broth microdilution (NCCLS), fastidious bacteria; format: cell-based; details: Haemophilus influenzae, ATCC49247, HTM, 5% CO2
Method: as §1

H. influenzae ATCC 49766 [4] = test: as above; format: cell-based; details: Haemophilus influenzae, ATCC49766, HTM, 5% CO2
Method: as §1

B. catarrhalis ATCC 8176 [5] = test: as above; format: cell-based, Branhamella (Moraxella) catarrhalis; details: Moraxella catarrhalis, ATCC8176, HTM, 5% CO2
Method: as §1

E. faecium VanA = test: MIC broth microdilution, antibiotic resistant strain panel; format: cell-based; details: Enterococcus faecium; multi-resistant E. faecium VanA; read-out: MIC
Method: as §1
Finally, compounds were also tested against populations of various clinical strains (antibiotic resistant strain panel, TABLE 1).

H. influenzae ATCC 49766 [6] = test: Minimal Bactericidal Concentration (MBC); format: cell-based; details: Haemophilus influenzae, ATCC49766, 99.9% killing
Method: (§2) Minimal Bactericidal Concentration (MBC). After the microtiter plates were read for the determination of the MIC, a 10-μl sample of each clear well (at least 5 wells without visible growth) was applied onto TSA plates for viable counts determination.
(§3) Petri dishes were incubated at 35° C. for exactly 24 h and bacterial colonies were counted.

B. catarrhalis ATCC 8176 [7] = test: Minimal Bactericidal Concentration (MBC); format: cell-based, Branhamella (Moraxella) catarrhalis; details: Moraxella catarrhalis, ATCC8176, 99.9% killing
Method: as §2, §3

S. typhimurium ATCC14028 = test: MIC broth microdilution (NCCLS); format: cell-based, Salmonella typhimurium; details: Salmonella enterica
Method: as §1

A. baumannii ATCC 19606 = test: MIC broth microdilution (NCCLS); format: cell-based, Acinetobacter baumannii; details: Acinetobacter baumannii, ATCC19606, read-out: MIC
Method: as §1

[8] = test system: Y. enterocolytica ATCC 23715; test: MIC broth microdilution (NCCLS); format: cell-based, Yersinia enterocolytica; details: Yersinia, ATCC23715, read-out: MIC
Method: as §1

H. influenzae ATCC 49247 [9] = test: Minimal Bactericidal Concentration (MBC); format: cell-based; details: Haemophilus influenzae, ATCC49247, 99.9% killing
Method: as §2, §3

[10] = Enterococcus faecium, ATCC35667, E. faecium ATCC 35667, read-out: MIC

MIC (S. aureus ATCC 29213) [µg/mL]	MIC (S. aureus MRSA COL) [µg/mL]	MIC [1] [µg/mL]	MIC [2] [µg/mL]	MIC (E. faecalis ATCC 29212) [µg/mL]	MIC (E. faecium ATCC 35667; [10]) [µg/mL]	MIC (E. coli ATCC 25922) [µg/mL]	MIC (H. influenzae ATCC 49247 [3]) [µg/mL]	MIC (H. influenzae ATCC 49766 [4]) [µg/mL]	MIC (B. catarrhalis ATCC 8176 [5]) [µg/mL]	Structure (SMILES)	MIC (E. faecium VanA) [µg/mL]	MBC (H. influenzae ATCC 49766 [6]) [µg/mL]	MBC (B. catarrhalis ATCC 8176 [7]) [µg/mL]	MIC (E. faecium ATCC 35667; E. faecium ATCC 35667) [µg/mL]	MIC (S. typhimurium ATCC14028) [µg/mL]	MIC (A. baumannii ATCC 19606) [µg/mL]	MIC [8] [µg/mL]	MBC (H. influenzae ATCC 49247 [9]) [µg/mL]
2 (≈ 3.61 µM)	512 (≈ 923 µM)	1 (≈ 1.8 µM)	8 (≈ 14.4 µM)	8 (≈ 14.4 µM)	64 (≈ 115 µM)	0.03 to 0.06 (≈ 0.0541 to 0.108 µM)	–	–	–	CO/N=C(\C(=O)N[C@@H]1C(=O)N2C(C(=O)O)=C(CSc3nc(=O)c(=O)[nH]n3C)CS[C@H]12)c1csc(N)n1 [Ceftriaxone]	–	–	–	–	–	–	–	–
–	–	–	–	16 (≈ 21.4 µM)	–	–	16 (≈ 21.4 µM)	128 (≈ 171 µM)	0.5 (≈ 0.668 µM)	CC[C@H]1OC(=O)[C@H](C)[C@@H](O[C@H]2C[C@@](C)(OC)[C@@H](O)[C@H](C)O2)[C@H](C)[C@@H](O[C@@H]2O[C@H](C)C[C@H](N(C)C)[C@H]2O)[C@](C)(OC)C[C@@H](C)C(=O)[C@H](C)[C@@H](O)[C@]1(C)O [Clarithromycin]	> 128	> 128	1 (≈ 1.34 µM)	–	–	–	–	–
0.06 (≈ 0.156 µM)	16 (≈ 41.7 µM)	0.06 (≈ 0.156 µM)	0.25 (≈ 0.652 µM)	2 to 4 (≈ 5.22 to 10.4 µM)	16 (≈ 41.7 µM)	0.015 to 0.06 (≈ 0.0391 to 0.156 µM)	0.06 (≈ 0.156 µM)	0.03 (≈ 0.0782 µM)	0.002 (≈ 0.00522 µM)	C[C@@H](O)[C@H]1C(=O)N2C(C(=O)O)=C(S[C@@H]3CN[C@H](C(=O)N(C)C)C3)[C@H](C)[C@H]12 [Meropenem]	–	0.06 (≈ 0.156 µM)	0.008 (≈ 0.0209 µM)	–	–	2 (≈ 5.22 µM)	> 0.5	0.06 (≈ 0.156 µM)

Structure (SMILES)	MIC (S. aureus ATCC 29213) [µg/mL]	MIC (S. aureus MRSA COL) [µg/mL]	MIC [1] [µg/mL]	MIC [2] [µg/mL]	MIC (E. faecalis ATCC 29212) [µg/mL]	MIC (E. faecium ATCC 35667; [10]) [µg/mL]	MIC (E. coli ATCC 25922) [µg/mL]	MIC (H. influenzae ATCC 49247 [3]) [µg/mL]	MIC (H. influenzae ATCC 49766 [4]) [µg/mL]	MIC (B. catarrhalis ATCC 8176 [5]) [µg/mL]	MIC (E. faecium VanA) [µg/mL]	MBC (H. influenzae ATCC 49766 [6]) [µg/mL]	MBC (B. catarrhalis ATCC 8176 [7]) [µg/mL]	MIC (E. faecium ATCC 35667; E. faecium ATCC 35667) [µg/mL]	MIC (S. typhimurium ATCC14028) [µg/mL]	MIC (A. baumannii ATCC 19606) [µg/mL]	MIC [8] [µg/mL]	MBC (H. influenzae ATCC 49247 [9]) [µg/mL]
O=C1OCCN1/N=C/c1ccc([N+](=O)[O-])o1 [Furazolidone]	4 to 16 (≈ 17.8 to 71.1 µM)	8 (≈ 35.5 µM)	2 to 4 (≈ 8.88 to 17.8 µM)	2 (≈ 8.88 µM)	8 to 16 (≈ 35.5 to 71.1 µM)	> 128	1 to 2 (≈ 4.44 to 8.88 µM)	–	–	–	64 (≈ 284 µM)	–	–	>64	2 (≈ 8.88 µM)	32 (≈ 142 µM)	> 16	–
